Tests used:
porcine coronary artery = experiment: Muscle bath: serotonin pre-contracted rings of porcine coronary artery, endothelium not denuded; details: cumulative doses added every 10 minutes; n=5; FIG. 4
Experimental: Rings of porcine coronary artery in which the endothelium was not denuded, were suspended in a muscle bath containing bicarbonate buffer (120 mM NaCl, 4.7 mM KCl, 1.0 mM MgSO4, 1.0 mM NaH2PO4, 10 mM glucose, 1.5 mM CaCl2, and 25 mM […], pH 7.4), equilibrated with 95% O2/5% CO2, at 37° C. at one gram of tension for 2 hours. The muscles were pre-contracted with serotonin ([…] for 10 minutes) and cumulative doses of PTD-pHSP20 (NH2-βAYARRAAARQARAWLRRAS*APLPGLK-COOH, closed circles) (SEQ ID NO:307) or PTD-scrambled-pHSP20 (NH2-βAYARRAAARQARAPRKS*LWALGRPLA-COOH open circles) (SEQ ID NO:308) were added every 10 minutes (FIG. 4). The percentage of relaxation is depicted as a percentage of the maximal serotonin contraction (n=5, *=p<0.05 compared to 0 peptide added). The concentrations of peptide used are depicted on the x axis. Representative rings were treated with peptides (1 mM final concentration) linked to FITC (15 minutes at 37° C.), fixed in 4% paraformaldehyde and examined under fluorescence microscopy (40× magnification).

[1] = test system: internal anal sphincter smooth muscles; experiment: Muscle bath: human internal anal sphincter, tonic sustained contractions; details: 1 mM final concentration; after washout of sodium nitroprusside
From the text: The internal anal sphincter was obtained from a human pathology specimen after an abdominal perineal resection for cancer. The smooth muscles were equilibrated in a muscle bath as described in example 6. The muscles developed tonic sustained contractions when warmed in the bicarbonate buffer. These contractions relaxed with the addition of the guanylate cyclase activator, sodium nitroprusside (SNP). When the sodium nitroprusside was washed out of the bath, the muscles again contracted spontaneously. The muscles were then treated with the PTD-phosphopeptide analogues of HSP20 (NH2-βAYARRAAARQARAWLRRAS*APLPGLK-COOH, 1 mM final concentration) (SEQ ID NO:307).

[2] = test system: Intestinal smooth muscle from the tinea coli; experiment: Muscle bath: pig tinea coli, contractile response to carbachol; details: peptide in a dextran gel, 1 mM final concentration; then treated with carbachol
Experimental: Intestinal smooth muscle was obtained from the tinea coli of a pig. These muscles were equilibrated in a muscle bath as described in example 6. The muscles produced transient contractions in response to high extracellular potassium chloride (KCl 110 mM) and in response to carbachol (10^−6 M). The muscles were then treated with a dextran gel containing the PTD-phosphopeptide analogues of HSP20 (NH2-βAYARRAAARQARAWLRRAS*APLPGLK-COOH, 1 mM final concentration) (SEQ ID NO:307) and treated with carbachol.

Tracheal smooth muscles = experiment: Muscle bath: rabbit tracheal smooth muscle pre-contracted with carbachol; design: species or system New Zealand White rabbits
Experimental: (§1) Tracheal and corpra cavernosal smooth muscles were obtained from a New Zealand White rabbits after sacrifice. The muscles were equilibrated in a muscle bath as described in example 6. The tracheal muscles were pre-contracted with carbachol and the corpra cavernosal smooth muscles were pre-contracted with norepinephrine. The muscles were then treated with the PTD-phosphopeptide analogues of HSP20 (NH2-βAYARRAAARQARAWLRRAS*APLPGLK-COOH) (SEQ ID NO:307).

[3] = test system: corpra cavernosal smooth muscles; experiment: Muscle bath: rabbit corpra cavernosal smooth muscle pre-contracted with norepinephrine; design: species or system New Zealand White rabbits
Experimental: as §1

[4] = test system: Human saphenous vein smooth muscles; experiment: Muscle bath: human saphenous vein rings, contraction in response to serotonin; details: peptide in 7.5% dextran gel; serotonin 1 uM
Experimental: Human saphenous vein was obtained from remnants that were discarded after vascular bypass operations. Rings of the saphenous vein were equilibrated in a muscle bath as described in experiment 4. The rings were treated with a 7.5% dextran gel alone, or a 7.5% dextran gel containing the phosphopeptide analogues of HSP20 (NH2-βAYARRAAARQARAWLRRAS*APLPGLK-COOH) (SEQ ID NO:307). The rings were then treated with serotonin (1 uM). The rings treated with the 7.5% dextran gel alone contracted in response to serotonin.

[5] = test system: Bovine aortic endothelial cells; experiment: Focal adhesion disassembly, interference reflection microscopy; format: cell-based; details: HSP20 peptides 10 uM for 30 minutes; serum starved one hour
Experimental: Bovine aortic endothelial cells were plated on glass coverslips (80K-100K cells) in DMEM plus 10% FBS over night (24 wells plate). The cells were serum starved (no serum) for one hour and incubated in the presence of the peptide analogues of HSP20 [NH2-βAYARRAAARQARAWLRRAS*APLPGLK-COOH-pHSP20 (10 uM) (SEQ ID NO:307) or scrambled analogues of HSP20 [NH2-βAYARRAAARQARAPRKS*LWALGRPLA-COOH-scHSP20 (10 uM)] (SEQ ID NO:308) for 30 minutes. The cells were fixed with 3% glutaraldehyde and the number of focal adhesions was detected with interference reflection microscopy. The Hep I peptide was used as a positive control. This peptide binds to the heparin binding site of thrombospondin in induces focal adhesion disassembly. […] The results are illustrated in FIG. 7.

A10 cells [6] = experiment: Scratch wound migration assay; format: cell-based; details: 50 μM; 10% FBS media; 24 hours
Experimental: Confluent A10 cells were serum starved (0.5% fetal bovine serum, FBS) for 48 hours. A linear wound was made in the smooth muscle cell monolayer using a rubber scraper and the scratched edges were marked using metal pins.

A10 cells [7] = experiment: Boyden chamber migration assay; format: cell-based
A10 cells [8] = experiment: Serum-induced proliferation, cell counts; format: cell-based; details: 50 μM in 10% FBS; 24 hours; serum starved 3 days beforehand
Experimental: A10 cells were serum starved for 3 days. The cells were then treated with media containing 10% fetal bovine serum, PTD-pHSP20 (NH2-βAYARRAAARQARAWLRRAS*APLPGLK-COOH (SEQ ID NO:307), or PTD-scrambled-pHSP20 (NH2-βAYARRAAARQARAPRKS*LWALGRPLA-COOH (SEQ ID NO:308) (50 μM). After 24 hours cell counts were performed. The number of cells per well in the serum starved plates averaged […] (+/−7.4) compared to 276+/−6.1 in wells containing 10% fetal bovine serum (FBS). In the presence of FBS, the phosphopeptide analogues of HSP20 containing a transduction domain inhibited of smooth muscle proliferation, 149+/−14.6 compared to transduction of the scrambled phosphopeptide analogue of HSP20 (242.3+/−15.3 cells/well). The results of these experiments are illustrated in FIG. 9.

human saphenous vein = experiment: Intimal hyperplasia in cultured human saphenous vein segments, morphometric intimal area; details: 14 days; media with 30% fetal bovine serum; versus serum alone or scrambled analogue
Experimental: Segments of human saphenous vein were cultured in media containing 30% fetal bovine serum.

NH2-βAYARRAAARQARAWLRRAS*APLPGLK-COOH (AYARRAAARQARAWLRRASAPLPGLK; HELM PEPTIDE1{[bAla].Y.A.R.R.A.A.A.R.Q.A.R.A.W.L.R.R.A.[O=C([C@H](COP(=O)(O)O)N[*:1])[*:2]].A.P.L.P.G.L.K}$$$$V2.0; SMILES CC(C)C[C@H](NC(=O)CNC(=O)[C@@H]1CCCN1C(=O)[C@H](CC(C)C)NC(=O)[C@@H]1CCCN1C(=O)[C@H](C)NC(=O)[C@H](COP(=O)(O)O)NC(=O)[C@H](C)NC(=O)[C@H](CCCNC(=N)N)NC(=O)[C@H](CCCNC(=N)N)NC(=O)[C@H](CC(C)C)NC(=O)[C@H](Cc1c[nH]c2ccccc12)NC(=O)[C@H](C)NC(=O)[C@H](CCCNC(=N)N)NC(=O)[C@H](C)NC(=O)[C@H](CCC(N)=O)NC(=O)[C@H](CCCNC(=N)N)NC(=O)[C@H](C)NC(=O)[C@H](C)NC(=O)[C@H](C)NC(=O)[C@H](CCCNC(=N)N)NC(=O)[C@H](CCCNC(=N)N)NC(=O)[C@H](C)NC(=O)[C@H](Cc1ccc(O)cc1)NC(=O)CCN)C(=O)N[C@@H](CCCCN)C(=O)O) [PTD-pHSP20, Phosphopeptide analogue of HSP20 with a protein transduction domain different from TAT]
relaxation as percentage of the maximal serotonin contraction (porcine coronary artery): relax and prevent spasm
relaxation of spontaneous tonic contraction [1]: relaxed and spasm was prevented
contractile response to carbachol [2]: significantly attenuated
relaxation of pre-contracted muscle (Tracheal smooth muscles): relaxed and spasm was prevented
relaxation of pre-contracted muscle [3]: relaxed and spasm was prevented
contraction in response to serotonin [4]: did not contract
focal adhesion disassembly (number of focal adhesions) [5]: led to focal adhesion disassembly
number of cells migrating into a 1 cm^2 scratched area (A10 cells [6]): inhibition of migration
migration of A10 cells (A10 cells [7]): inhibition of migration
number of cells per well (A10 cells [8]): 149+/−14.6 cells/well
intimal area (human saphenous vein): significant reduction in intimal area
